Our source for the % of control and % of inhibition values is ChEMBL document CHEMBL5465560, “Selectivity Literature for EUbOPEN Chemogenomic Library” (2024).

For test [1], the target named is Ribosomal protein S6 kinase beta-2 (Homo sapiens) (UniProt Q9UBS0). Description: Selectivity interaction (Kinase panel (Z-LYTE Assay)) EUB0001632a RPS6KB2. The following applies: at 10 µM.
In test [2] the target is T1, Dual specificity tyrosine-phosphorylation-regulated kinase 3 (Homo sapiens) (UniProt O43781).
T1 sequence (whole entry): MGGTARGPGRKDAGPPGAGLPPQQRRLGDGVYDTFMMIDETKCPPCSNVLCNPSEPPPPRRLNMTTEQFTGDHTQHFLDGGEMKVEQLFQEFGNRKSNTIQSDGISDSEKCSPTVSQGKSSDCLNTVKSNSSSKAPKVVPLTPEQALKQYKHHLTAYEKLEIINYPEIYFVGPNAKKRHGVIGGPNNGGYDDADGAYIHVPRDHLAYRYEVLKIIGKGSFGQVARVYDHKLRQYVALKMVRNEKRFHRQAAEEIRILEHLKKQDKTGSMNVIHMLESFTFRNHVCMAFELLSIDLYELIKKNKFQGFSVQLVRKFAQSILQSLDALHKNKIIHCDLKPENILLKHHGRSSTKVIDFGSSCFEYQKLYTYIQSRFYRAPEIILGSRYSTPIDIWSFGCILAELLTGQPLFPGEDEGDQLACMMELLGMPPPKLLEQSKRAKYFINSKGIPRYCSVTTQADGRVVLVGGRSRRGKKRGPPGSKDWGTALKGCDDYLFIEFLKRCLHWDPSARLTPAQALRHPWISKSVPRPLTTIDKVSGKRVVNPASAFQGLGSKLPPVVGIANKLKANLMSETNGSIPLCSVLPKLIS
Description: Selectivity interaction (SelectScreen profiling (Invitrogen)) EUB0000607a DYRK3. Particulars: at 2 µM.

The target in test [3] is Ribosomal protein S6 kinase beta-1 (Homo sapiens, UniProt P23443). As to the kind of experiment: Selectivity interaction (KinomeScan (DiscoverX)) EUB0000666a RPS6KB1. The following applies: at 10 µM.
In another test the target is Aurora kinase B (Homo sapiens, UniProt Q96GD4). As to the kind of experiment: Selectivity interaction (KinomeScan (DiscoverX)) EUB0001079a AURKB. Particulars: at 1 µM.
Test [4] addresses Ribosomal protein S6 kinase alpha-4 (Homo sapiens) (UniProt O75676). Description: Selectivity interaction (KinomeScan (DiscoverX)) EUB0001079a RPS6KA4. The following applies: at 1 µM.
The target in test [5] is T2, Mitogen-activated protein kinase kinase kinase 7 (Homo sapiens) (UniProt O43318).
T2 sequence (whole entry): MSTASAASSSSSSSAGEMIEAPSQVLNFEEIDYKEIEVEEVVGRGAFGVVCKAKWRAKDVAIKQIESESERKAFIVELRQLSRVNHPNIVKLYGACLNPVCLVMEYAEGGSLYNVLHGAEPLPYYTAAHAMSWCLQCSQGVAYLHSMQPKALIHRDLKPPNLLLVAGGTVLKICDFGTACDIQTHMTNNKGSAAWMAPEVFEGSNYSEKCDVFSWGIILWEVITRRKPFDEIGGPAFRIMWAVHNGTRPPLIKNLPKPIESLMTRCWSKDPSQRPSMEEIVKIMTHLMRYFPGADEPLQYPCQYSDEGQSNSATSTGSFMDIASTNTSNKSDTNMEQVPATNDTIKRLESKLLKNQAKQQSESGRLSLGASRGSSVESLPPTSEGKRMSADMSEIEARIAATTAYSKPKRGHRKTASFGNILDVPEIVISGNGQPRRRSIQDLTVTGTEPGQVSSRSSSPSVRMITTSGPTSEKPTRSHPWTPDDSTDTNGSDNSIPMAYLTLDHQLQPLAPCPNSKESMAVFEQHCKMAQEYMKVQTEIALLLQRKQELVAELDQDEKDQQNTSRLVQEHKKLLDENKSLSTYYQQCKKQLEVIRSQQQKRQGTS
As to the kind of experiment: Selectivity interaction (ActivX KiNativ screen (ex vivo kinase selectivity in human PBMCs)) EUB0001619a MAP3K7. The format is cell-based. The following applies: PBMC, at 1 µM.

In test [6] the target is Serine/threonine-protein kinase N1 (Homo sapiens, UniProt Q16512). As to the kind of experiment: Selectivity interaction (KinomeScan (DiscoverX)) EUB0001619a PKN1. The following applies: at 1 µM.
Test [7] concerns the target Serine/threonine-protein kinase MARK2 (Homo sapiens) (UniProt Q7KZI7). Description: Selectivity interaction (Kinase panel (Invitrogen)) EUB0000639a MARK2. The following applies: at 200 nM.
Test [8] deals with Serine/threonine-protein kinase SIK2 (Homo sapiens) (UniProt Q9H0K1). Particulars: at 10 µM.
Test [9] addresses T3, Discoidin domain-containing receptor 2 (Homo sapiens) (UniProt Q16832).
T3 sequence (whole entry): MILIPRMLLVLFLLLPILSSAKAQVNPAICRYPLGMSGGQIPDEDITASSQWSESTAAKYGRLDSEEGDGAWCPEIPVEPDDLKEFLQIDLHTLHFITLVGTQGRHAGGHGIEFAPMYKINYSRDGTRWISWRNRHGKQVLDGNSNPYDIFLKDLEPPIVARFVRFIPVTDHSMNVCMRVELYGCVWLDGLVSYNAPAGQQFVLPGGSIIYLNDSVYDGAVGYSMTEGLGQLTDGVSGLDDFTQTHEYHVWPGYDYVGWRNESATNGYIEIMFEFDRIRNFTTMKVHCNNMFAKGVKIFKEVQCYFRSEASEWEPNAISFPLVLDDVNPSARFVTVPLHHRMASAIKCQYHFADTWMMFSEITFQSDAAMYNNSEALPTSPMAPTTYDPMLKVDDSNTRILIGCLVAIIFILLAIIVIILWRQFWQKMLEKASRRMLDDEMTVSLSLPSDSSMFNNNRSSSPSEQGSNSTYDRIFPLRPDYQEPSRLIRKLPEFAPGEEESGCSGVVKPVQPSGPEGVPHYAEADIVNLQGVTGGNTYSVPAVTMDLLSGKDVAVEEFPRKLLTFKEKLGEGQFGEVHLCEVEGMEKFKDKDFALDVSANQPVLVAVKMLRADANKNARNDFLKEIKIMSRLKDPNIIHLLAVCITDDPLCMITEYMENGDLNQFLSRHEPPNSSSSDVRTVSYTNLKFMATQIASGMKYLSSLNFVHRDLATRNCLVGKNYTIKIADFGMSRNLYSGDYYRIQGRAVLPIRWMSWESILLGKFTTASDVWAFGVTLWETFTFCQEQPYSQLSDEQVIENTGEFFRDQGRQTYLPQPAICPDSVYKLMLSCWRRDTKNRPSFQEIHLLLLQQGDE
As to the kind of experiment: Selectivity interaction (KinomeScan (DiscoverX)) EUB0001049a DDR2. The following applies: at 1 µM.

Test [10] concerns the target G protein-coupled receptor kinase 4 (Homo sapiens) (UniProt P32298). Description: Selectivity interaction (KinomeScan (DiscoverX)) EUB0000695a GRK4. Particulars: at 100 nM.
Test [11] has as its target Rho-associated protein kinase 1 (Homo sapiens) (UniProt Q13464). Description: Selectivity interaction (KinomeScan (DiscoverX)) EUB0000045b ROCK1.
Test [12] concerns the target Serine/threonine-protein kinase PLK2 (Homo sapiens, UniProt Q9NYY3). Description: Selectivity interaction (KinomeScan (DiscoverX)) EUB0000595a PLK2. The following applies: at 10 µM.

Rho-associated protein kinase 1 (Homo sapiens), sequence (Q13464 2-1354 limits assumed): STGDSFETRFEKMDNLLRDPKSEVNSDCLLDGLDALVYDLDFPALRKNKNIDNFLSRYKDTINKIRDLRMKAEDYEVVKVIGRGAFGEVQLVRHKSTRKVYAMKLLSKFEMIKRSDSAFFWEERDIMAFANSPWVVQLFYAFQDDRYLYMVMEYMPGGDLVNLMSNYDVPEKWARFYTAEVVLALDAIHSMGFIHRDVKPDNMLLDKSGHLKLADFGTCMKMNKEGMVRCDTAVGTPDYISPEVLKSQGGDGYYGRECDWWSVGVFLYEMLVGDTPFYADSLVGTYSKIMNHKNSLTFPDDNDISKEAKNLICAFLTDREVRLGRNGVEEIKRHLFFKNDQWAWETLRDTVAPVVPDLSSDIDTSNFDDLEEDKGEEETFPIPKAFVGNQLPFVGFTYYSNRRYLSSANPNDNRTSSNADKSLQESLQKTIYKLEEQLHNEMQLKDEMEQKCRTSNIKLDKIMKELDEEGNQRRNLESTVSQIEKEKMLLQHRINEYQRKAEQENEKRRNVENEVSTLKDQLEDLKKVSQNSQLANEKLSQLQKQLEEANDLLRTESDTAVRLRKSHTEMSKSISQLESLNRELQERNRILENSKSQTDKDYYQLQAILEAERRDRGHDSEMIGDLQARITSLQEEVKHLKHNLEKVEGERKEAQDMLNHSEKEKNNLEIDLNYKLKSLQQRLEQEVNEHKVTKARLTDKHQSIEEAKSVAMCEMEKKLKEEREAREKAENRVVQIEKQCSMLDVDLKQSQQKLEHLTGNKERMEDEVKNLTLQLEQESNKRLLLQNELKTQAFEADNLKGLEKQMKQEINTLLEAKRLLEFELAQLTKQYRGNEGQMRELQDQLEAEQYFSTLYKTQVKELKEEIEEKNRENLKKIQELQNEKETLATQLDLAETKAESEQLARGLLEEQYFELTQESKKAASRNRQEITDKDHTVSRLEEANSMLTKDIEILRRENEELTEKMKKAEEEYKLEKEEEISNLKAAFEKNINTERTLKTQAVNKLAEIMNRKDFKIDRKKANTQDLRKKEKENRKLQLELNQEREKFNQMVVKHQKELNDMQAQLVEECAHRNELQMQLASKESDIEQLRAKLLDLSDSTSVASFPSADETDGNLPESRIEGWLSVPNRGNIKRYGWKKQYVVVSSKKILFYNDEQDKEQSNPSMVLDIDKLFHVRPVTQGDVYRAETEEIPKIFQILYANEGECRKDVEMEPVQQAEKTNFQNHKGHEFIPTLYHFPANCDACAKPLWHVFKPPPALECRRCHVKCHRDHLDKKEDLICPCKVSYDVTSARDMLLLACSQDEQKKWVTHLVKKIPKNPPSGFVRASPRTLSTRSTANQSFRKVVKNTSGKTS
Ribosomal protein S6 kinase beta-2 (Homo sapiens), sequence (Q9UBS0 whole entry): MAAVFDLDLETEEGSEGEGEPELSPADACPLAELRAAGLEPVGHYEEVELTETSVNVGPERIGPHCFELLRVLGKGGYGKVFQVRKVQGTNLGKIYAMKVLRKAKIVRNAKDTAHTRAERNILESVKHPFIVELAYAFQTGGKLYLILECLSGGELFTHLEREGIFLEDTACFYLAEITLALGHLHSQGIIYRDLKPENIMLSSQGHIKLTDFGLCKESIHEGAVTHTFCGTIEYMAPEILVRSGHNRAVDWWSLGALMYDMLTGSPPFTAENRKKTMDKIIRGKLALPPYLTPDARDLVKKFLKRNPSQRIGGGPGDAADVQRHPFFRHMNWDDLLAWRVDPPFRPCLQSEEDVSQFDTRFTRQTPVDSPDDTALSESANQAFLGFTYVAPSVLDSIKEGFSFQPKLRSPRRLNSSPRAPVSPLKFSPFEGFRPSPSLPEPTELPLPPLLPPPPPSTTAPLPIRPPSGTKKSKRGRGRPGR
Aurora kinase B, sequence (Q96GD4 whole entry): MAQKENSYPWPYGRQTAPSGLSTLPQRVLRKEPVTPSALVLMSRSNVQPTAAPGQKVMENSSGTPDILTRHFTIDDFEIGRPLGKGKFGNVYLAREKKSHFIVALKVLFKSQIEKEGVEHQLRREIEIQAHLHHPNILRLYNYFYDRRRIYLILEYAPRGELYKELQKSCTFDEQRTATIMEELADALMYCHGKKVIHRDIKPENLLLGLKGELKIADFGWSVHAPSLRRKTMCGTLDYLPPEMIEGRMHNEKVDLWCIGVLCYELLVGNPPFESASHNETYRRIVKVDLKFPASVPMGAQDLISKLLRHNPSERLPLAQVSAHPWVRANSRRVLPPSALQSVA
G protein-coupled receptor kinase 4 (Homo sapiens), sequence (P32298 whole entry, looked up): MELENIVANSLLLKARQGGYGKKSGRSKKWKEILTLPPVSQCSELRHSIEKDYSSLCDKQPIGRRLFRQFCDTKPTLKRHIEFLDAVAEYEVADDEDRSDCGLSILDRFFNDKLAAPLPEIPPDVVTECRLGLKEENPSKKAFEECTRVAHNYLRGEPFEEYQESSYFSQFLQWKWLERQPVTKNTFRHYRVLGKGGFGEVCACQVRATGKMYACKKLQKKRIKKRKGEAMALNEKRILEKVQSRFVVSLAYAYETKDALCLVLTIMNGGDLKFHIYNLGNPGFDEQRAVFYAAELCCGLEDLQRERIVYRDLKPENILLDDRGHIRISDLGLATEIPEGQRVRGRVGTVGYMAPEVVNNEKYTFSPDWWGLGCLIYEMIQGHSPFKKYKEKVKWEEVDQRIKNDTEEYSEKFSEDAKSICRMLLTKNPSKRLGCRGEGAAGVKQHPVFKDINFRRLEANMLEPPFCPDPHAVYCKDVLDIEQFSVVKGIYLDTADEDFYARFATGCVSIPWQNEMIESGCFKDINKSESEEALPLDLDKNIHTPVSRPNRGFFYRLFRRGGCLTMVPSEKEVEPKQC
Serine/threonine-protein kinase N1, sequence (Q16512 2-942 limits assumed): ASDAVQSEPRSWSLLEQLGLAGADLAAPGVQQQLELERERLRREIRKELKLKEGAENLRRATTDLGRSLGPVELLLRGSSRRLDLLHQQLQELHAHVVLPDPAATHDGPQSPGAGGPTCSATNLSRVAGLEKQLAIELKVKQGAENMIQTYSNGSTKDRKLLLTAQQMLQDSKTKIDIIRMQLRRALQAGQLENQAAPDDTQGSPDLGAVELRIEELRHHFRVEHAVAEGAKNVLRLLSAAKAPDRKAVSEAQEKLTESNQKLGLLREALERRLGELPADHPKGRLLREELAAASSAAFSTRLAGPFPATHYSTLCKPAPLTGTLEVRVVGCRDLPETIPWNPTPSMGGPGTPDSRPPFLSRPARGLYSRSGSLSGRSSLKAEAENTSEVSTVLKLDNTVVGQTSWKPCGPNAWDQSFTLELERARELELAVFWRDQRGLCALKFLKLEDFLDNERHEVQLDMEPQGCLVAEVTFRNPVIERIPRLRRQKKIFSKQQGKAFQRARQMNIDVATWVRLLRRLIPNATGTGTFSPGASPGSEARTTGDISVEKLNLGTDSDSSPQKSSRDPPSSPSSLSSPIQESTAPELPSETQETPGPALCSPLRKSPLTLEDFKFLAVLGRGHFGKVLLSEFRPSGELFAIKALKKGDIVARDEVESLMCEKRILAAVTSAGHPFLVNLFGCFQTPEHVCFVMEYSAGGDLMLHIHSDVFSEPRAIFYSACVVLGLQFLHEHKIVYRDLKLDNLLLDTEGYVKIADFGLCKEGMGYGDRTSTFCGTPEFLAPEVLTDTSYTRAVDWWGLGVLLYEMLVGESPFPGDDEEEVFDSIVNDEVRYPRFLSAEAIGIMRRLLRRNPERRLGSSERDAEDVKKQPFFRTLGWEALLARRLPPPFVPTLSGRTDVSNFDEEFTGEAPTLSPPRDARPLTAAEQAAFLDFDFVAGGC
Serine/threonine-protein kinase MARK2 (Homo sapiens), sequence (Q7KZI7 whole entry): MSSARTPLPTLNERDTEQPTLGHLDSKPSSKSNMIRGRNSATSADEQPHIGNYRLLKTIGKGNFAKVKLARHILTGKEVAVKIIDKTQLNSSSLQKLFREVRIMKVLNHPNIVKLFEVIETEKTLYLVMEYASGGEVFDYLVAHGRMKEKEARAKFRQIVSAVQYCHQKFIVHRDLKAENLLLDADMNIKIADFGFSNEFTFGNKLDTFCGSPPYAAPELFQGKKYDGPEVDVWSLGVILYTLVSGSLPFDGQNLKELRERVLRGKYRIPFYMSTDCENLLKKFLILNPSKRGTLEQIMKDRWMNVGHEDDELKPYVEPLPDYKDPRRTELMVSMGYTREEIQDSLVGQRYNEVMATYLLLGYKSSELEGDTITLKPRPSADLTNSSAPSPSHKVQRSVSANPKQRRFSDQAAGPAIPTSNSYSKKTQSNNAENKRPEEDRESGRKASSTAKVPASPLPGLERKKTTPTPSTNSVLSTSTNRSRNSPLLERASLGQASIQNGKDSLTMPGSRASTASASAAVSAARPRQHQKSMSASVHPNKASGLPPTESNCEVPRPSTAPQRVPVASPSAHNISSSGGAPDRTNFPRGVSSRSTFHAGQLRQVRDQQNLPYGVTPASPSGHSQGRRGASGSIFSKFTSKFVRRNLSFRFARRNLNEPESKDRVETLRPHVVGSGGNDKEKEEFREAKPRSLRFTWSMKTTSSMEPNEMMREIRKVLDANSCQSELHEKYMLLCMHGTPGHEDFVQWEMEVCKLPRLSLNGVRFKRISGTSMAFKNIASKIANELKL
Ribosomal protein S6 kinase beta-1, sequence (P23443 whole entry, looked up): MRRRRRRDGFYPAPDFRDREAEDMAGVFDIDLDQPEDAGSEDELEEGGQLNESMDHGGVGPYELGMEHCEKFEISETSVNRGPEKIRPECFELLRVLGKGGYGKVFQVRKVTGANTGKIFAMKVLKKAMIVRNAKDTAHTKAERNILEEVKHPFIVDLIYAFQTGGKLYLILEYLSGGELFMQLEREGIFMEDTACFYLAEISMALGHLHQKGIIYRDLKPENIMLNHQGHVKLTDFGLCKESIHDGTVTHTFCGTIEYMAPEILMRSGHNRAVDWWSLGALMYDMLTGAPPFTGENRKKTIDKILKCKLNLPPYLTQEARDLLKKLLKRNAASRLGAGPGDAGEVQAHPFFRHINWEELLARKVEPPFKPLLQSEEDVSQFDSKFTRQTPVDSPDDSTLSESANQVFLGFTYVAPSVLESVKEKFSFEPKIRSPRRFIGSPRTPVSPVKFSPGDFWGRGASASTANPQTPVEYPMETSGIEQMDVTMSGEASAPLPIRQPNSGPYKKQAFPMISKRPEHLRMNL

`Cn1cc(-n2cnc3c(NCc4nc5cc(Cl)c(Cl)cc5[nH]4)nc(N4CCOCC4)nc32)cn1`: the % of control in test [1] is 3.53%.

Turning to `CNC(=O)Nc1ccc(-c2nc(N3CC4CCC(C3)O4)c3cnn(C4CCC5(CC4)OCCO5)c3n2)cc1`, the % of inhibition in [2] is -1%.

For the compound `O=C(NOC[C@H](O)CO)c1ccc(F)c(F)c1Nc1ccc(I)cc1F`, the % of control in test [3] stood at 100%. Turning to `Nc1cnc(N2CCc3cc(S(=O)(=O)Nc4c(F)cc(Cl)cc4F)cc(N4CCCC4=O)c32)nc1` [TP-020n], the figures for the % of control (at Aurora kinase B; in test [4]) were 98% and 100%, respectively. Take `N#Cc1cccc(-c2c[nH]c3ncnc(N4CCOCC4)c23)c1`: the % of inhibition in test [5] came out at 8%. The compound also had a % of control in [6] of 62%.

`CC[C@@H]1[C@H](F)C(=O)N[C@@H]1COc1nccc2cc(C(N)=O)c(OC)cc12` [ZIMLOVISERTIB]: the % of inhibition in test [7] was 5.09%. For the compound `CCN(CC)CCCCNc1ncc2cc(-c3cc(OC)cc(OC)c3)c(NC(=O)NC(C)(C)C)nc2n1`, in test [8], the % of control came to 100%.

On to `COc1cc(Nc2nc(C)cc(-c3cnn4nc(OC)ccc34)n2)cc(C(F)(F)F)c1`, for which the % of control in test [9] was determined as 65%. For the compound `Cc1cc(F)c(C(=O)Nc2cccc(-c3nncn3C(C)C)n2)cc1-n1cnc(C2CC2)c1`, the % of control in [10] was determined as 100%. As for `C=CC(=O)Nc1cc(-n2c(=O)ccc3cnc4ccc(-c5ccc(NS(C)(=O)=O)cc5)cc4c32)ccc1C`, the % of control came out at 56% in test [11] (at 1 µM) and 59% in test [11] (at 10 µM). As for `COCC(=O)NC/C=C/c1ccc2ncnc(Nc3ccc(Oc4ccc(C)nc4)c(C)c3)c2c1` [CP-724714], in [12], the % of control was 100%.
